Reference: PubChem BioAssay (NCI)
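Assay format: 96-well plates, 48-hour exposure. At the TGI there is no net growth.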

Legend:
Test in all cases: NCI tumour cell line growth inhibition, 48 h
[1] = test system: 786-0 renal
[2] = test system: A498 renal
[3] = test system: A549 NSCLC
[4] = test system: ACHN renal
[5] = test system: CCRF-CEM leukemia
[6] = test system: COLO 205 colon
[7] = test system: DLD-1 colon
[8] = test system: DMS 114 small cell lung
[9] = test system: DMS 273 small cell lung
[10] = test system: EKVX NSCLC
[11] = test system: HCC-2998 colon
[12] = test system: HCT-116 colon
[13] = test system: HCT-15 colon
[14] = test system: HL-60(TB) leukemia
[15] = test system: HOP-18 NSCLC
[16] = test system: HOP-62 NSCLC
[17] = test system: HT29 colon
[18] = test system: IGROV1 ovarian
[19] = test system: K-562 leukemia
[20] = test system: KM12 colon
[21] = test system: KM20L2 colon
[22] = test system: LOX IMVI melanoma
[23] = test system: LXFL 529 NSCLC
[24] = test system: M14 melanoma
[25] = test system: M19-MEL melanoma
[26] = test system: MALME-3M melanoma
[27] = test system: MOLT-4 leukemia
[28] = test system: NCI-H226 lung
[29] = test system: NCI-H23 lung
[30] = test system: NCI-H460 lung
[31] = test system: NCI-H522 lung
[32] = test system: OVCAR-3 ovarian
[33] = test system: OVCAR-4 ovarian
[34] = test system: OVCAR-5 ovarian
[35] = test system: OVCAR-8 ovarian
[36] = test system: RPMI-8226 leukemia
[37] = test system: RXF 393 renal
[38] = test system: RXF-631 renal
[39] = test system: SF-268 CNS
[40] = test system: SF-295 CNS
[41] = test system: SF-539 CNS
[42] = test system: SK-MEL-2 melanoma
[43] = test system: SK-MEL-28 melanoma
[44] = test system: SK-MEL-5 melanoma
[45] = test system: SK-OV-3 ovarian
[46] = test system: SN12C renal
[47] = test system: SNB-19 CNS
[48] = test system: SNB-75 CNS
[49] = test system: SNB-78 CNS
[50] = test system: SR leukemia
[51] = test system: SW-620 colon
[52] = test system: TK-10 renal
[53] = test system: U251 CNS
[54] = test system: UACC-257 melanoma
[55] = test system: UACC-62 melanoma
[56] = test system: UO-31 renal
[57] = test system: XF 498 CNS
[58] = test system: HOP-92 NSCLC

CC(=O)OCCOCNC(=S)N/N=C/c1cc(Br)cs1
TGI [1]: > 100 µM | TGI [2]: > 100 µM | TGI [3]: > 100 µM | TGI [4]: > 100 µM | TGI [5]: > 100 µM | TGI [6]: > 100 µM | TGI [7]: > 100 µM | TGI [8]: > 100 µM | TGI [9]: > 100 µM | TGI [10]: > 100 µM | TGI [11]: > 100 µM | TGI [12]: > 100 µM | TGI [13]: > 100 µM | TGI [14]: > 100 µM | TGI [15]: > 100 µM | TGI [16]: > 100 µM | TGI [17]: > 100 µM | TGI [18]: > 100 µM | TGI [19]: > 100 µM | TGI [20]: > 100 µM | TGI [21]: > 100 µM | TGI [22]: > 100 µM | TGI [23]: > 100 µM | TGI [24]: > 100 µM | TGI [25]: > 100 µM | TGI [26]: > 100 µM | TGI [27]: > 100 µM | TGI [28]: > 100 µM | TGI [29]: > 100 µM | TGI [30]: > 100 µM | TGI [31]: > 100 µM | TGI [32]: > 100 µM | TGI [33]: > 100 µM | TGI [34]: > 100 µM | TGI [35]: > 100 µM | TGI [36]: > 100 µM | TGI [37]: > 100 µM | TGI [38]: > 100 µM | TGI [39]: > 100 µM | TGI [40]: > 100 µM | TGI [41]: > 100 µM | TGI [42]: > 100 µM | TGI [43]: > 100 µM | TGI [44]: > 100 µM | TGI [45]: > 100 µM | TGI [46]: > 100 µM | TGI [47]: > 100 µM | TGI [48]: > 100 µM | TGI [49]: > 100 µM | TGI [50]: > 100 µM | TGI [51]: > 100 µM | TGI [52]: > 100 µM | TGI [53]: > 100 µM | TGI [54]: > 100 µM | TGI [55]: > 100 µM | TGI [56]: > 100 µM | TGI [57]: > 100 µM

CCOP1(=O)C=C(C)C(Cl)=C(C)C1 (configuration not stated)
TGI [1]: 83 µM | TGI [3]: 65 µM | TGI [4]: 72.2 µM | TGI [5]: 59.2 µM | TGI [6]: 24.4 µM | TGI [7]: > 100 µM | TGI [8]: 44.9 µM | TGI [9]: 30.8 µM | TGI [10]: > 100 µM | TGI [11]: > 100 µM | TGI [12]: 41.4 µM | TGI [13]: 73.7 µM | TGI [14]: 53.9 µM | TGI [15]: > 100 µM | TGI [16]: > 100 µM | TGI [58]: 68.3 µM | TGI [17]: 79.6 µM | TGI [18]: > 100 µM | TGI [19]: 90.5 µM | TGI [20]: 34.5 µM | TGI [21]: > 100 µM | TGI [22]: 50.4 µM | TGI [23]: 44.5 µM | TGI [24]: 70.9 µM | TGI [25]: > 100 µM | TGI [27]: 76.1 µM | TGI [28]: 59.9 µM | TGI [29]: 46.2 µM | TGI [30]: > 100 µM | TGI [31]: 27.8 µM | TGI [32]: > 100 µM | TGI [33]: 90.9 µM | TGI [34]: > 100 µM | TGI [35]: > 100 µM | TGI [36]: 62.6 µM | TGI [37]: 77.2 µM | TGI [38]: 30.5 µM | TGI [39]: > 100 µM | TGI [40]: > 100 µM | TGI [41]: 59.5 µM | TGI [42]: 50.4 µM | TGI [43]: 56.7 µM | TGI [44]: > 100 µM | TGI [45]: > 100 µM | TGI [46]: 51.5 µM | TGI [47]: > 100 µM | TGI [48]: 69.7 µM | TGI [50]: > 100 µM | TGI [51]: 53.5 µM | TGI [52]: 96.7 µM | TGI [53]: 63.2 µM | TGI [54]: 88.7 µM | TGI [55]: 33.9 µM | TGI [56]: > 100 µM | TGI [57]: 75.2 µM
